According to US10265342B2, “Sustained-release composition, method for fabricating, and use thereof” (NATIONAL TSING HUA UNIVERSITY, priority 2017, dated 2019):

Legend:
[1] = test system: hindlimb ischemia (ligation of femoral artery); experiment: mouse hindlimb ischemia model; format: in vivo, BALB/c mice; settings: intramuscular injection into quadriceps muscle
Method: As mentioned above, the sustained-release composition can be applied for promoting angiogenesis in ischemic tissues. Thus, the effect of such the use will be further evaluated through a mouse hindlimb ischemia model and utilizes the sustained-release composition of the 1st embodiment of the present disclosure. In the present disclosure, all animal experimentation processes are performed according to an animal care and use guideline promulgated by Council of Agriculture, Executive Yuan, R.O.C. (Taiwan). In particular, BALB/c mice are served as a platform for developing the animal model. In the beginning, for each of the mice, 2 L/min of oxygen and 4% inhaled isoflurane are provided into an anesthesia box to introduce a general anesthesia in the mouse under room temperature, and the mouse is intubated and supplied by 3% isoflurane continuously. After a medial thigh area of the mouse is cut by a scalpel, the mouse is subjected by ligation of upper end and lower end of femoral artery to simulate hindlimb ischemia.
Subsequently, an intramuscular injection is performed into the quadriceps muscle adjacent to the proximal ligation site. The abovementioned mice can be divided into four groups according to the treatment. In details, the mice of Group 1 are only injected with physiological saline. […] The mice of Group 4 are injected with the sustained-release composition of the 1st embodiment. […]

[2] = cited from earlier work

Question: Which results are given for `C=CCSSSCC=C` [free diallyl trisulfide, diallyl trisulfide]?
Answer: hindlimb kept or lost after fourteen days [1]: lose its hindlimb; muscle atrophy of the hindlimb ([1]; fourteen days): slighter than that of the mice of Group 1 and Group 3; half-life in aqueous solution [2]: around 15 minutes
